# Measured values published in ChEMBL document CHEMBL1799997, “Discovery of omecamtiv mecarbil the first, selective, small molecule activator of cardiac Myosin” (ACS Med Chem Lett, 2010).
# Calls of active or inactive are those of the source. The calls are words filed in the database; no cut-off is given here.
# Legend:
# [1] = Induction of contractility in Sprague-Dawley rat Cardiomyocytes assessed as change in fractional shortening at 2 uM; format: functional, Cardiac muscle cell
# Aorta = assay: Inhibition of vasodilation in Sprague-Dawley rat aortic ring; format: functional
# Rattus norvegicus [2] = species: Rattus norvegicus; assay: Activation of Sprague-Dawley rat myosin in cardiomyocytes assessed as compound concentration resulting in 40% increase in ATPase activity at calcium concentrations that produced 25-50% of maximum calcium dependent activation; format: cell-based
# [3] = Plasma protein binding in Sprague-Dawley rat; format: ADME, cell-free; conditions: read-out: PPB (converted)
# [4] = Ratio of extraction in human Liver microsomes; format: ADME, Microsome; conditions: read-out: ERH
# Cytochrome P450 1A2 = target: T1, Cytochrome P450 1A2 (Homo sapiens, UniProt P05177); assay: Inhibition of CYP1A2; format: ADME
# T1 sequence (P05177 whole entry): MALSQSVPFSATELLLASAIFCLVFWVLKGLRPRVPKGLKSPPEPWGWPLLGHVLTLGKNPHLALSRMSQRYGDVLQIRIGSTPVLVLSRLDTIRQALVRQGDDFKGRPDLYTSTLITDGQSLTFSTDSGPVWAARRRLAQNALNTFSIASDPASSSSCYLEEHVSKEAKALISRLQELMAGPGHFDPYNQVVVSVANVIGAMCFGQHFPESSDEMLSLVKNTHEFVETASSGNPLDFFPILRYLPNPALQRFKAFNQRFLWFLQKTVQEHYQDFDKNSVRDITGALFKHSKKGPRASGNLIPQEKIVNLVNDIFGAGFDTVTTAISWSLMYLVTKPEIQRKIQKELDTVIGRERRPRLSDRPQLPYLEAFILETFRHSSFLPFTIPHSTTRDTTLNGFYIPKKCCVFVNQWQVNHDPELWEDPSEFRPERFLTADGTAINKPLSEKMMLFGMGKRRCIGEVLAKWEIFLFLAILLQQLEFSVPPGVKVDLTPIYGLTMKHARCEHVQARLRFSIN
# [5] = Solubility of the compound at pH 5 by shake flask method; format: physicochemical; conditions: buffer
# [6] = Kinetic solubility of the compound; format: physicochemical
# Rattus norvegicus [7] = species: Rattus norvegicus; assay: Activation of myosin in Sprague-Dawley rat cardiomyocytes assessed as compound concentration resulting in 40% increase in ATPase activity at calcium concentrations that produced 25-50% of maximum calcium dependent activation; format: cell-based
# Bos taurus [8] = species: Bos taurus; assay: Activation of bovine myosin in cardiac sarcomere assessed as compound concentration resulting in 40% increase in ATPase activity at calcium concentrations that produced 25-50% of maximum calcium dependent activation at 100 uM as single dose
# [9] = Induction of contractility in Sprague-Dawley rat Cardiomyocytes assessed as change in increase in fractional shortening at 2 uM; format: functional, Cardiac muscle cell
# Gallus gallus = species: Gallus gallus; assay: Activation of chicken gizzard myosin in smooth muscle assessed as compound concentration resulting in 40% increase in ATPase activity at calcium concentrations that produced 25-50% of maximum calcium dependent activation at 100 uM as single dose
# Oryctolagus cuniculus = species: Oryctolagus cuniculus; assay: Activation of rabbit myosin in skeletal muscle assessed as compound concentration resulting in 40% increase in ATPase activity at calcium concentrations that produced 25-50% of maximum calcium dependent activation at 100 uM as single dose
# Bos taurus [10] = species: Bos taurus; assay: Activation of bovine uterus myosin in smooth muscle assessed as compound concentration resulting in 40% increase in ATPase activity at calcium concentrations that produced 25-50% of maximum calcium dependent activation at 100 uM as single dose
# [11] = Induction of contractility in Sprague-Dawley rat Cardiomyocytes assessed as change in fractional shortening at 10 uM; format: functional, Cardiac muscle cell
# CYP1A2 = target: T2, CYP1A2 (Homo sapiens, UniProt P05177); assay: Inhibition of CYP1A2 at 10 uM; format: ADME
# T2 sequence (P05177 whole entry): T1 sequence (P05177 whole entry)
# [12] = Induction of contractility in Sprague-Dawley rat Cardiomyocytes assessed as change in fractional shortening at 0.4 uM; format: functional, Cardiac muscle cell
# [13] = Induction of contractility in Sprague-Dawley rat Cardiomyocytes assessed as change in fractional shortening at 0.2 uM; format: functional, Cardiac muscle cell
# [14] = Bioavailability in Beagle dog heart failure model; format: ADME, organism-based, Canis lupus familiaris; conditions: in vivo
# [15] = Volume of distribution in Sprague-Dawley rat; format: ADME, organism-based; conditions: in vivo
# [16] = Clearance in Sprague-Dawley rat; format: ADME, organism-based; conditions: in vivo
# [17] = Clearance in Beagle dog heart failure model; format: ADME, organism-based, Canis lupus familiaris; conditions: in vivo
# [18] = Bioavailability in Sprague-Dawley rat; format: ADME, organism-based; conditions: in vivo
# [19] = Volume of distribution in Beagle dog heart failure model; format: ADME, organism-based, Canis lupus familiaris; conditions: in vivo
# [20] = Induction of contractility in Sprague-Dawley rat Cardiomyocytes assessed as change in fractional shortening at 0.8 uM; format: functional, Cardiac muscle cell
Activity (Rattus norvegicus [2]) [µM],fraction unbound [3],hepatic extraction ratio [4],IC50 (Cytochrome P450 1A2) [µM],solubility thermodynamic [5] [µg/mL],solubility kinetic [6] [µg/mL],Compound,Activity [1] [%],R50 (Aorta) [µM],further results
0.8,0.065,0.3,> 10,17,,COC(=O)N1CCC(Oc2cc(F)cc(NC(=O)Nc3ccc(C)nc3)c2)CC1,123,11,
2.5,0.175,0.5,0.08,390,,CC(=O)N1CCC[C@@H](Oc2cc(F)cc(NC(=O)Nc3cccnc3)c2)C1,129,1.7,
0.7,0.049,,,,< 1,COc1ccc(NC(=O)Nc2cc(F)cc(Oc3cccnc3)c2)cc1,139,,
1.4,,,,,< 1,O=C(Nc1cc(Oc2cccnc2)cc([N+](=O)[O-])c1)c1ccc(F)cc1,,,Activity (Rattus norvegicus [7]): Active; Activity (Bos taurus [8]): Active; Activity [9]: 135%; Activity (Gallus gallus): inactive; Activity (Oryctolagus cuniculus): inactive; Activity (Bos taurus [10]): inactive
32,,,,,17,O=C(Nc1cccc(Oc2cccnc2)c1)c1ccc(F)cc1,,,
7.3,0.175,,,550,,CC(=O)N1CCC[C@H](Oc2cc(F)cc(NC(=O)Nc3cccnc3)c2)C1,,>25,Activity [11]: 122%; inhibition at 10 µM (CYP1A2): 99%
1.1,0.071,,,28,46,O=C(Nc1cccnc1)Nc1cc(F)cc(Oc2cccnc2)c1,127,,
1.8,,,,,1.1,O=C(Nc1ccc(F)cc1)Nc1cc(F)cc(Oc2cccnc2)c1,121,,
0.7,0.112,0.9,0.06,13,,CN(C)S(=O)(=O)N1CC[C@@H](Oc2cc(F)cc(NC(=O)Nc3cccnc3)c2)C1,,>25,Activity [12]: 137%
0.58,0.204,< 0.2,> 10,2200,,COC(=O)N1CCN(Cc2cccc(NC(=O)Nc3ccc(C)nc3)c2F)CC1 [OMECAMTIV MECARBIL],,>25,Activity [13]: 123%; bioavailability [14]: 80%; Vd [15]: 3.5 L/kg; clearance [16]: 22 mL/min/kg; clearance [17]: 7.2 mL/min/kg; bioavailability [18]: 100%; Vd [19]: 3.6 L/kg
3.6,0.096,0.5,,18,,COC(=O)N1CCC[C@@H](Oc2cc(F)cc(NC(=O)Nc3cccnc3)c2)C1,123,8,inhibition at 10 µM (CYP1A2): 97%
0.6,0.079,,,40,,CN(C)S(=O)(=O)N1CCC[C@@H](Oc2cc(F)cc(NC(=O)Nc3cccnc3)c2)C1,,6.6,Activity [20]: 126%
2.5,,0.6,> 10,130,,CC(=O)N1CCC[C@@H](Oc2cc(F)cc(NC(=O)Nc3ccc(C)nc3)c2)C1,140,2.4,
4.5,0.128,< 0.2,> 10,4000,,COC(=O)N1CCN(Cc2cccc(NC(=O)Nc3ccc(C)nc3)c2)CC1,,15,Activity [20]: 126%
2.5,0.079,,,,5.3,O=C(Nc1cc(F)cc(Oc2cccnc2)c1)c1ccc(F)cc1,104,,
1.4,0.075,,,,28,COc1ccc(NC(=O)Nc2cc(F)cc(Oc3cccnc3)c2)cn1,134,,
1.7,0.103,< 0.2,> 10,4600,,COC(=O)N1CCN(Cc2cc(F)cc(NC(=O)Nc3ccc(C)nc3)c2)CC1,,>25,Activity [20]: 138%
